Results as given in patent US9809568B2, “Compounds inhibiting leucine-rich repeat kinase enzyme activity” (Merck Sharp & Dohme Corp., priority 2013, dated 2017).

Molecular target: LRRK2(G2019S mutation, GST-LRRK2 (amino acids 970-2527)) (Homo sapiens (Human), UniProt Q5S007, G2019S)
Assay: LRRK2 Km ATP LanthaScreen Assay
Assay type: biochemical
Conditions: Km ATP LanthaScreen TR-FRET; G2019S LRRK2, LRRKtide substrate; mean IC50 of several tests
Source text: Unless otherwise noted, all LRRK2 IC50 data presented in tables refers to the LRRK2 Km ATP LanthaScreen™ Assay that is described in the Biological Assay section.
The data presented for the Km ATP LanthaScreen™ Assay represents mean IC50 values based on several test results and may have reasonable deviations depending on the specific conditions and reagents used. Reagents for the LRRK2 Km ATP LanthaScreen™ Assay were purchased from Life Technologies Corporation.
LRRK2 Km ATP LanthaScreen™ Assay
• a) 400 nl of a 1:2.15 serial dilution of test compound (98 μM top assay concentration) is spotted via Labcyte Echo to certain wells in a 384 well black, untreated plate. Control wells contain 400 nl of either DMSO or 400 nl of a known inhibitor in DMSO. • b) 10 μl of a 2.5 nM LRRK2(G2019S mutation, GST-LRRK2 (amino acids 970-2527)) enzyme solution in 1× assay buffer (50 mM Tris pH 8.5, 10 mM MgCl2, 0.01% Brij-35, 1mM EGTA, 2 mM DTT, 0.05 mM NaVO4) is added to all wells. • c) A 30 minute room temperature incubation is followed by addition of 10 μl of 800 nM fluorescein labeled LRRKtide peptide substrate and 186 μM ATP solution in 1× assay buffer to all wells. • d) After a 60 minute room temperature incubation, 20 μl of TR-FRET Dilution Buffer (Invitrogen PV3756B) containing 4 nM Tb-labeled anti-phospho LRRKtide antibody and 20 mM EDTA is added to all wells. • e) Plates are incubated at room temperature for 1 hour and read on an Envision™ multi-mode plate reader with LanthaScreen™ settings. Results are analysed using Assay Data Analyzer.

Chain of LRRK2(G2019S mutation, GST-LRRK2 (amino acids 970-2527)) (Q5S007 970-2527 G2019S): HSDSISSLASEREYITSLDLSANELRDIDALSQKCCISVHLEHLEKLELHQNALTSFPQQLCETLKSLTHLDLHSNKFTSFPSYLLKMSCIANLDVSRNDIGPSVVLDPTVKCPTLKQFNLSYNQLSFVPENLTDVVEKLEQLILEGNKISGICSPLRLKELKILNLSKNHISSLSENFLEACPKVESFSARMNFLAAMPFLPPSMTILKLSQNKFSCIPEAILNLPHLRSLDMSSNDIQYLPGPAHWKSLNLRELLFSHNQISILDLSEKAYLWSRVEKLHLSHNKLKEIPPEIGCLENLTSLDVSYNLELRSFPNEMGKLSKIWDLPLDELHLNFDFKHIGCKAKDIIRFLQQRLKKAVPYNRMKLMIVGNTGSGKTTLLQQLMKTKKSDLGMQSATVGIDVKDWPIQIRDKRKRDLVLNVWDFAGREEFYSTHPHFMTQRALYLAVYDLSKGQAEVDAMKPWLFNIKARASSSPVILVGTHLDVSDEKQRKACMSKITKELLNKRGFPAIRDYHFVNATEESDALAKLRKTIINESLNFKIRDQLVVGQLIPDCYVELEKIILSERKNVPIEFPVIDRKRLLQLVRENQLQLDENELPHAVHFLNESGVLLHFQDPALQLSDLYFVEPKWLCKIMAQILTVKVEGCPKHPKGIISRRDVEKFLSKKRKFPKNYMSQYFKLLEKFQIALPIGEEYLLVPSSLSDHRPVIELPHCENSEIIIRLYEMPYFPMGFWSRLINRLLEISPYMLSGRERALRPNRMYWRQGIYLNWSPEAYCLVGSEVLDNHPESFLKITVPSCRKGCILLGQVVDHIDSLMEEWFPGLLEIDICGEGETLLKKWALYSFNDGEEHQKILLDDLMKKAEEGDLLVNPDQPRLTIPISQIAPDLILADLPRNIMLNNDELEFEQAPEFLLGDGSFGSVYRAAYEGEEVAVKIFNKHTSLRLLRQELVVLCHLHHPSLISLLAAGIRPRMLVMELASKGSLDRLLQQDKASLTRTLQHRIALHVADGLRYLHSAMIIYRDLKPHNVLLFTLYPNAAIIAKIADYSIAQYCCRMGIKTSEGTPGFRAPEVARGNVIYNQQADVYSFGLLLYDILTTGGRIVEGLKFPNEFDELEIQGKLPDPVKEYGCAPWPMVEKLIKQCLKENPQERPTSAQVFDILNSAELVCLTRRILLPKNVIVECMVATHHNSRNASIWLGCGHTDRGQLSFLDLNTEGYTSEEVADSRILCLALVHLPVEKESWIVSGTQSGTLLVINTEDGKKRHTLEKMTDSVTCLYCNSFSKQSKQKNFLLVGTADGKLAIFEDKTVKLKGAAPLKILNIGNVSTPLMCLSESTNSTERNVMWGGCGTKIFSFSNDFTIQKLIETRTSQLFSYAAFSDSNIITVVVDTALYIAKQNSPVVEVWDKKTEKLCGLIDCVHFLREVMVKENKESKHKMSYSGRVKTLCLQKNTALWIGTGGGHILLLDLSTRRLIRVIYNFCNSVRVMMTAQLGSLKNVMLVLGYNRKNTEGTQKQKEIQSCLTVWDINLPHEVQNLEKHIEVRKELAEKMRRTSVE

| Structure (SMILES) | IC50 [nM] |
| --- | --- |
| CC(C)Oc1cc(F)c2[nH]nc(-c3ccnc(N4CCOCC4)c3)c2c1 [Example 4] | 12 |
| Fc1cc(-c2cnccn2)cc2c(-c3ccnc(N4CCOCC4)c3)n[nH]c12 [Example 6] | 58 |
| Cc1cc(-c2cnn(C)c2)cc2c(-c3ccnc(N4CCOCC4)c3)n[nH]c12 [Example 7] | 199 |
| Cn1cc(-c2cc(Cl)c3[nH]nc(-c4ccnc(N5CCOCC5)c4)c3c2)cn1 [Example 8] | 309 |
| Cn1cc(-c2cc(F)c3[nH]nc(-c4ccnc(N5CC(F)C5)c4)c3c2)cn1 [Example 10] | 8.2 |
| Cc1cc(-c2cnn(C)c2)cc2c(-c3ccnc(N4CCN(S(C)(=O)=O)CC4)c3)n[nH]c12 [Example 11] | 218 |
| Cc1cc(-c2cnn(C)c2)cc2c(-c3ccnc(N4CC[C@@H](F)C4)c3)n[nH]c12 [Example 12] | 380 |
